What was measured:
[1] = system: paresis/paralysis; details: immediate or sustained release formulations; earlier application; cited from earlier work
[2] = system: central pain in MS patients; details: intravenous 1.0 mg/ml morphine in physiological saline, response only after high doses; cited from earlier work
[3] = system: MS, Lou Gherig's Disease and Parkinson's Disease; details: in vivo; cited from earlier work
[4] = system: paresis/paralysis of the tongue, larynx, pharynx, esophagus, urinary bladder sphincter, muscles of the lumbar and lumbo-sacral spine and of the pelvis and …; assay: Opiate treatment of dogs with neuropathic paresis/paralysis (UROS/OPS case studies); details: dog, in vivo
Description: In order to clinically diagnose and/or evaluate the effectiveness of a dose of an anti-opiopathic active agent or formulation, over time, when being used to treat an opiopathic ailment, the following grading protocol can be employed to quantify and document function of the target muscle(s) and/or organ(s).
In grading the evaluations, an organ is considered to be neurologically normal when there is no neuropathology affecting its function. Because in most cases an organ can be clearly identified as having normal neurologic function, decreased neurologic function (paresis), or no neurologic function (paralysis), the documenting of the degree of remaining neurologic function of an organ lends itself to a simple grading system. An organ that functions normally and has no observable signs or symptoms is considered to be neurologically normal and receives the lowest score (0). An organ that has no function as a result of a neurologic/neurogenic ailment and is paralyzed, receives the highest score (10). An organ that has a partial loss of function (paresis) receives a score between (1) and (9), depending on the degree of function remaining. A decrease of the score of a function after administration of an anti-opiopathic active agent or formulation, indicates effectiveness roughly proportional to the relative decrease. […]

SMILES: COc1ccc2c3c1O[C@H]1C(=O)CC[C@H]4[C@@H](C2)N(C)CC[C@]314 [hydrocodone]
- reversal of paresis/paralysis [1]: successful reversal

SMILES: CN1CC[C@]23c4c5ccc(O)c4O[C@H]2[C@@H](O)C=C[C@H]3[C@H]1C5.O=S(=O)(O)O [morphine sulfate]
- reversal of paresis/paralysis [1]: successful reversal

SMILES: CN1CC[C@]23c4c5ccc(O)c4O[C@H]2[C@@H](O)C=C[C@H]3[C@H]1C5 [morphine]
- responsiveness of neuropathic (central) pain [2]: poorly responsive, but not totally unresponsive

SMILES: O=C1CC[C@@]2(O)[C@H]3Cc4ccc(O)c5c4[C@@]2(CCN3CC2CC2)[C@H]1O5 [naltrexone]
- treatment outcome [3]: limited success

SMILES: COc1ccc2c3c1O[C@H]1C(=O)CC[C@@]4(O)[C@@H](C2)N(C)CC[C@]314 [oxycodone]
- reversal of paresis/paralysis [1]: successful reversal
- reversing paresis/paralysis in the larynx [4]: effective
- treating urinary bladder sphincter paresis/paralysis [4]: effective
